From ChEMBL document CHEMBL1201862, “PubChem BioAssay data set” (2004)
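Method: 48-hour compound exposure of cells in 96-well plates, five concentrations, linear interpolation of endpoints. GI50 marks 50% less growth.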 Calls of active or inactive are those of the source. No stated cut-off is given here; in the data, active = GI50 up to about 1.1 µM and inactive = higher.

How the values were obtained:
Experiment in all cases: DTP human tumour cell line panel, 48 h
HOP-18 = tested on: HOP-18
DMS-273 = tested on: DMS-273
KM-20L2 = tested on: KM-20L2
DMS-114 = tested on: DMS-114
RXF 631 = tested on: RXF 631
LXFL 529 = tested on: LXFL 529
XF498 = tested on: XF498
DLD-1 = tested on: DLD-1
M19-MEL = tested on: M19-MEL

SMILES	GI50 (HOP-18)	GI50 (DMS-273)	GI50 (KM-20L2)	GI50 (DMS-114)	GI50 (RXF 631)	GI50 (LXFL 529)	GI50 (XF498)	GI50 (DLD-1)	GI50 (M19-MEL)
COc1cc(/C=C2\CCC(CN(C)C)C2=O)ccc1OC(=O)c1ccccc1 (configuration not stated)	16.9 µM (inactive)	11.1 µM (inactive)	15.9 µM (inactive)	15.8 µM (inactive)	11.2 µM (inactive)	2.88 µM (inactive)	20.3 µM (inactive)	4.67 µM (inactive)	8.57 µM (inactive)
N#Cc1ccccc1/C=N/O	> 100 µM (inactive)	> 41.4 µM (inactive)	> 100 µM (inactive)	> 59.4 µM (inactive)		> 91.4 µM (inactive)	> 100 µM (inactive)	> 93.8 µM (inactive)	> 100 µM (inactive)
NCCCNCc1c2ccccc2c(CNCCCN)c2ccccc12	25.1 µM (inactive)		17.9 µM (inactive)	14.3 µM (inactive)		11.4 µM (inactive)		34.6 µM (inactive)	14.7 µM (inactive)
Cc1nc(N2N=C(c3ccc(Cl)cc3)CCC2=O)sc1[N+](=O)[O-]	> 100 µM (inactive)	> 100 µM (inactive)	> 100 µM (inactive)	> 100 µM (inactive)		> 100 µM (inactive)	> 100 µM (inactive)	> 100 µM (inactive)	> 100 µM (inactive)
O=C(NNC(=O)/C(=C/c1cccc([N+](=O)[O-])c1)NC(=O)c1ccccc1)Nc1ccc(Cl)cc1	15.6 µM (inactive)	12.9 µM (inactive)	17.1 µM (inactive)	11.5 µM (inactive)	10.2 µM (inactive)	10.6 µM (inactive)	9.53 µM (inactive)	12.6 µM (inactive)	15.2 µM (inactive)
Cn1c(=O)c(/N=N/c2c(=O)n(C)c(=O)n3c2[nH]c2ccccc23)c2[nH]c3ccccc3n2c1=O	24 µM (inactive)	> 100 µM (inactive)	> 100 µM (inactive)	63 µM (inactive)	85.7 µM (inactive)	20 µM (inactive)	> 100 µM (inactive)	> 100 µM (inactive)	> 100 µM (inactive)
Cc1ccc(NC(=O)c2cc3cc(/N=N/c4ccccc4C(=O)O)ccc3oc2=O)cc1	32 µM (inactive)	37.4 µM (inactive)	36 µM (inactive)	24 µM (inactive)			33 µM (inactive)	41 µM (inactive)	
COC(=O)C1=C(C[S+]([O-])c2ccc([N+](=O)[O-])cc2[N+](=O)[O-])ON(C)C1c1ccccc1 (configuration not stated)	22.6 µM (inactive)	36.2 µM (inactive)	27.8 µM (inactive)	27.7 µM (inactive)	99.5 µM (inactive)	30.1 µM (inactive)	37.3 µM (inactive)	33.8 µM (inactive)	34.3 µM (inactive)
CC(O)C(C(=O)O)N(CC1(O)OCC(O)C(O)C1O)N=O (configuration not stated)		> 100 µM (inactive)	> 100 µM (inactive)	> 100 µM (inactive)	> 100 µM (inactive)	> 100 µM (inactive)	> 100 µM (inactive)	> 100 µM (inactive)	> 100 µM (inactive)
O=C1C(O)=C(CC=C(Cl)Cl)C(=O)c2ccccc21	25.4 µM (inactive)	2.04 µM (inactive)	9.42 µM (inactive)	18 µM (inactive)		2.38 µM (inactive)	32.3 µM (inactive)	1.65 µM (inactive)	7.64 µM (inactive)
CCCCCCCCCCCCCCCC(=O)OCC1OC(n2cc(F)c(=O)[nH]c2=O)C(N)C(O)C1O (configuration not stated)	16.3 µM (inactive)		17.2 µM (inactive)	18.8 µM (inactive)		18.9 µM (inactive)	18.9 µM (inactive)	20.6 µM (inactive)	18.7 µM (inactive)
Cc1ccc(S(=O)(=O)NC(=O)NCCc2ccccc2)cc1	> 100 µM (inactive)		> 100 µM (inactive)	62.1 µM (inactive)		> 100 µM (inactive)	> 100 µM (inactive)	> 100 µM (inactive)	> 100 µM (inactive)
COC(=O)c1c/c(=N\NC(=O)CC(=O)Nc2ccccc2Cl)c2ccccc2o1		> 100 µM (inactive)	> 100 µM (inactive)	> 100 µM (inactive)	> 100 µM (inactive)	> 100 µM (inactive)	> 100 µM (inactive)	> 100 µM (inactive)	
COc1cc(-c2nccc3cc(OC)c(OC)cc23)ccc1O	21.1 µM (inactive)	43.5 µM (inactive)	33.7 µM (inactive)		62.4 µM (inactive)	29.7 µM (inactive)	25.4 µM (inactive)	76.4 µM (inactive)	> 100 µM (inactive)
Fc1ccccc1C1CC(c2ccc3ccccc3c2)=Nc2ccccc2S1 (configuration not stated)	> 100 µM (inactive)	> 100 µM (inactive)	> 100 µM (inactive)			> 100 µM (inactive)	> 100 µM (inactive)		> 100 µM (inactive)
C#CCNC(=O)N(CC#C)N=O	> 100 µM (inactive)	> 100 µM (inactive)	> 100 µM (inactive)	> 100 µM (inactive)		> 100 µM (inactive)	> 100 µM (inactive)	> 100 µM (inactive)	> 100 µM (inactive)
OCC(O)C(O)C(O)C(O)c1nnn[nH]1 (configuration not stated)		> 100 µM (inactive)		> 100 µM (inactive)		> 100 µM (inactive)	> 100 µM (inactive)	> 100 µM (inactive)	> 100 µM (inactive)
CCN1C[C@]2(C)CC[C@H](O)C34C1C(C[C@@H]32)[C@@]1(O)CC[C@H]2C[C@@H]4[C@@H]1[C@H]2O	> 100 µM (inactive)	> 100 µM (inactive)	> 100 µM (inactive)	> 100 µM (inactive)		> 100 µM (inactive)		> 100 µM (inactive)	> 100 µM (inactive)
COc1cc2c(cc1OC)C(Cc1cc(Br)c(OC)c(OC)c1)=[N+](C)CC2	> 100 µM (inactive)		39.2 µM (inactive)	2.52 µM (inactive)		9.73 µM (inactive)		80 µM (inactive)	56.1 µM (inactive)
O=c1[nH]c(-c2ccccc2)nc2ccc(Cl)cc12		45.9 µM (inactive)	29.2 µM (inactive)	> 100 µM (inactive)		29.4 µM (inactive)			54.3 µM (inactive)
O=C(OCc1ccccc1C1CSCSC1)c1cc(C(=O)OCc2ccccc2C2CSCSC2)c(C(=O)OCc2ccccc2C2CSCSC2)cc1C(=O)OCc1ccccc1C1CSCSC1	> 100 µM (inactive)	> 100 µM (inactive)	> 100 µM (inactive)	> 100 µM (inactive)		> 100 µM (inactive)		> 100 µM (inactive)	> 100 µM (inactive)
CCCCCCCCC(=O)N(C)C1C2CN3CCC(O2)C13 (configuration not stated)	> 100 µM (inactive)	> 100 µM (inactive)	> 100 µM (inactive)	> 100 µM (inactive)		> 100 µM (inactive)		> 100 µM (inactive)	> 100 µM (inactive)
COc1cc(Br)c(/C=N\c2cccc3ccc(OS(=O)(=O)c4ccc([N+](=O)[O-])cc4)cc23)cc1OC				> 100 µM (inactive)		12.2 µM (inactive)		> 100 µM (inactive)	> 100 µM (inactive)
Brc1ccccc1C1SCc2nc3ccccc3n21 (configuration not stated)	< 0.01 µM (active)			16 µM (inactive)		15.1 µM (inactive)		12.7 µM (inactive)	15 µM (inactive)
O=C(Nc1cccc(C(F)(F)F)c1)C(=O)C1NC(=S)NC1=O (configuration not stated)	> 100 µM (inactive)	> 100 µM (inactive)	> 100 µM (inactive)	> 100 µM (inactive)		> 100 µM (inactive)		> 100 µM (inactive)	> 100 µM (inactive)
